In patent US6362193B1, “Cycloalkenyl substituted compounds” (SmithKline Beecham Corporation, priority 1997, dated 2002):

Columns and labels:
[1] = target: T1, CSBP2 (Homo sapiens, UniProt Q16539); assay: CSBP Kinase Assay; format: biochemical; details: yeast-expressed purified CSBP2; 170 uM ATP (Km); T669 peptide substrate; 30° C. for 10 min
T1 construct: made in house; host or cells: yeast
Procedure: This assay measures the CSBP-catalyzed transfer of ^32P from [a-^32P]ATP to threonine residue in an epidermal growth factor receptor (EGFR)-derived peptide (T669) with the following sequence: […] (residues 661-681). (See Gallagher et al., “Regulation of Stress Induced Cytokine Production by Pyridinyl Imidazoles: Inhibition of CSPB Kinase”, BioOrganic & Medicinal Chemistry, to be published 1996).
Kinase reactions (total volume 30 ul) contain: 25 mM Hepes buffer, pH 7.5; 10 mM MgCl2; 170 uM ATP^(1); 10 uM Na ortho vanadate; 0.4 mM T669 peptide; and 20-80 ng of yeast-expressed purified CSBP2 (see Lee et al., Nature 300, n(72), 739-746 (December 1994)). Compounds (5 ul from [6×] stock^(2)) are pre-incubated with the enzyme and peptide for 20 min on ice prior to starting the reactions with 32P/MgATP. Reactions are incubated at 30° C. for 10 min and stopped by adding 10 ul of 0.3 M phosphoric acid. 32P-labeled peptide is separated on phosphocellulose (Wattman, p81) filters by spotting 30 ul reaction mixture. Filters are washed 3 times with 75 mM phosphoric acid followed by 2 washes with H2O, and counted for 32P.
(1) The Km of CSBP for ATP was determined to be 170 uM. Therefore, compounds screened at the Km value of ATP.
(2) Compounds are usually dissolved in DMSO and are diluted in 25 mM Hepes buffer to get final concentration of DMSO of 0.17%.

T1 sequence (Q16539 whole entry): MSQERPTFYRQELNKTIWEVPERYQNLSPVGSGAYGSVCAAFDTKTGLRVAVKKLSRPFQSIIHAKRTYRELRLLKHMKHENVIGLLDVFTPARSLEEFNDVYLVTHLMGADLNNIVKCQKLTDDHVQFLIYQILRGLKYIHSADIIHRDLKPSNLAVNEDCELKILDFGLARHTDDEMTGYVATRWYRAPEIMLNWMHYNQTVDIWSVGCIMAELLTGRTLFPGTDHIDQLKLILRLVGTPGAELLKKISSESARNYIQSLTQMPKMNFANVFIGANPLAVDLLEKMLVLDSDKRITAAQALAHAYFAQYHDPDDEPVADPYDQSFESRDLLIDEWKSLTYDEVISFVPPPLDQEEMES

IC50 [1]: < 50 µM | melting point: 134 to 135 °C
Structure (SMILES): Nc1nccc(C2=C(c3ccc(F)cc3)CCC2)n1 [Example 1, 1-[4-(2-Aminopyrimidinyl)]-2-(4-fluorophenyl)cyclopenten-1-ene]
